Results published in US9879032B2, “Pyridine compounds” (Daiichi Sankyo Company, Limited, priority 2015, dated 2018).
pIC50: −log10 of the molar value.

Target: human TNAP (Homo sapiens (Human), UniProt P05186)
Test: Inhibitory test of TNAP activity (pNPP substrate, p-nitrophenol production)
Type: biochemical
Details: inhibition of human TNAP activity, incubated at room temperature for 60 minutes
Protocol: COS 1 cells (DS Pharma Biomedical Co., Ltd.) were transfected with human TNAP (OriGene Technologies, Inc.) using Lipofectamine LTX & Plus reagent (Invitrogen Corp.). On the next day, the medium was replaced with a fresh medium, and the cells were cultured in an incubator for 3 days. After 3 days, the culture supernatant was collected and concentrated by centrifugation at 5000 G for 30 minutes using Amicon 14, 10^4 cut (Merck Millipore). The concentrated culture supernatant was dialyzed against 5 L of 50 mM Tris/200 mM NaCl/1 mM MgCl2/20 μM ZnCl2 twice and used as an enzyme source (enzyme solution). The substrate pNPP (ProteoChem Inc.) was adjusted to 3.1 mM with Milli-Q water, and a solution of each test compound dissolved in dimethyl sulfoxide (DMSO; Wako Pure Chemical Industries, Ltd.) by 6 serial dilutions at a 5-fold common ratio from 100 μM, or DMSO was added thereto at a final concentration of 1% by volume. The enzyme solution adjusted to 2 μg/mL with an assay buffer (200 mM Tris/2 mM MgCl2/0.04 mM ZnCl2/0.01% Tween 20) was added in the same amount of the substrate solution and incubated at room temperature for 60 minutes. Then, the absorbance (ABS: 405 nm) was measured using a microplate reader (model plus 384, Molecular Devices, LLC), and the concentration of produced p-nitrophenol was calculated.

Chain of human TNAP (P05186 18-502): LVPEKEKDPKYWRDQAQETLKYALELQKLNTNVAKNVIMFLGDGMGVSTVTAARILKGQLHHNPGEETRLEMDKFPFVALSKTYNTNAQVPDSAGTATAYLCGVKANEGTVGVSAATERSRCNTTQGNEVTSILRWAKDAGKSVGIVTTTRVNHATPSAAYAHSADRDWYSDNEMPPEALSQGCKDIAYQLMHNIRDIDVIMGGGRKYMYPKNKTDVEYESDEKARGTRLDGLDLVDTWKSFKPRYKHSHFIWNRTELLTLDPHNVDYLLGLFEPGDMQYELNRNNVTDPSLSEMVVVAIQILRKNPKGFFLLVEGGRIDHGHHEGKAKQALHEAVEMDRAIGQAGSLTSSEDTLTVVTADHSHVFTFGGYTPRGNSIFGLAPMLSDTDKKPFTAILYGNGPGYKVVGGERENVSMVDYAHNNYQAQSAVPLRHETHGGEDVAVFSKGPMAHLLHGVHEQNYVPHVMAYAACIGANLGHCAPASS

Row | Structure (SMILES) | pIC50
1 | CCN1CCOc2ncc(NS(=O)(=O)c3cc(F)ccc3OC)cc2C1=O [Example 4, N-(4-Ethyl-5-oxo-2,3,4,5-tetrahydropyrido[3,2-f][1,4]oxazepin-7-yl)-5-fluoro-2-methoxybenzenesulfonamide] | 7.64
2 | COc1ccc(Cl)cc1S(=O)(=O)Nc1cnc2c(c1)C(=O)NCCO2 [Example 9, 5-Chloro-2-methoxy-N-(5-oxo-2,3,4,5-tetrahydropyrido[3,2-f][1,4]oxazepin-7-yl)benzenesulfonamide] | 8.85
3 | COc1ccc(F)cc1S(=O)(=O)Nc1cnc2c(c1)C(=O)N(C)C(C)CO2 (stereo not shown) [Example 17, N-(3,4-Dimethyl-5-oxo-2,3,4,5-tetrahydropyrido[3,2-f][1,4]oxazepin-7-yl)-5-fluoro-2-methoxybenzenesulfonamide] | 7.90
4 | COc1ccccc1S(=O)(=O)Nc1cnc2c(c1)C(=O)NCCO2 [Example 12, 2-Methoxy-N-(5-oxo-2,3,4,5-tetrahydropyrido[3,2-f][1,4]oxazepin-7-yl)benzenesulfonamide] | 7.87
5 | COc1ccc(F)cc1S(=O)(=O)Nc1cnc2c(c1)C(=O)N[C@@H](CO)CO2 [Example 28, 5-Fluoro-N-[(3S)-3-(hydroxymethyl)-5-oxo-2,3,4,5-tetrahydropyrido[3,2-f][1,4]oxazepin-7-yl]-2-methoxybenzenesulfonamide] | 8.44
6 | COc1ccc(Cl)cc1S(=O)(=O)Nc1cnc2c(c1)C(=O)N(C)CCO2 [Example 1, 5-Chloro-2-methoxy-N-(4-methyl-5-oxo-2,3,4,5-tetrahydropyrido[3,2-f][1,4]oxazepin-7-yl)benzenesulfonamide] | 8.20
7 | COc1ccc(Cl)cc1S(=O)(=O)Nc1cnc2c(c1)C(=O)NC1(CC1)CO2 [Example 35, 5-Chloro-2-methoxy-N-(5′-oxo-4′,5′-dihydrospiro[cyclopropane-1,3′-pyrido[3,2-f][1,4]oxazepin]-7′-yl)benzenesulfonamide] | 8.96
8 | COc1ccc(F)cc1S(=O)(=O)Nc1cnc2c(c1)C(=O)N(C)CC(C)O2 (stereo not shown) [Example 15, N-(2,4-Dimethyl-5-oxo-2,3,4,5-tetrahydropyrido[3,2-f][1,4]oxazepin-7-yl)-5-fluoro-2-methoxybenzenesulfonamide] | 7.02
9 | COc1ccc(Cl)cc1S(=O)(=O)Nc1cnc2c(c1)C(=O)N(C(C)C)CCO2 [Example 5, 5-Chloro-2-methoxy-N-[5-oxo-4-(propan-2-yl)-2,3,4,5-tetrahydropyrido[3,2-f][1,4]oxazepin-7-yl]benzenesulfonamide] | 7.15
10 | O=C1NCCOc2ncc(NS(=O)(=O)c3cc(Cl)ccc3OC(F)(F)F)cc21 [Example 13, 5-Chloro-N-(5-oxo-2,3,4,5-tetrahydropyrido[3,2-f][1,4]oxazepin-7-yl)-2-(trifluoromethoxy)benzenesulfonamide] | 8.47
11 | COc1ccc(Br)cc1S(=O)(=O)Nc1cnc2c(c1)C(=O)N[C@@H](CO)CO2 [Example 29, 5-Bromo-N-[(3S)-3-(hydroxymethyl)-5-oxo-2,3,4,5-tetrahydropyrido[3,2-f][1,4]oxazepin-7-yl]-2-methoxybenzenesulfonamide] | 8.92
12 | O=C1NC2(CC2)COc2ncc(NS(=O)(=O)c3cc(Cl)ccc3OC(F)(F)F)cc21 [Example 40, 5-Chloro-N-(5′-oxo-4′,5′-dihydrospiro[cyclopropane-1,3′-pyrido[3,2-f][1,4]oxazepin]-7′-yl)-2-(trifluoromethoxy)benzenesulfonamide] | 8.72
13 | COCCN1CCOc2ncc(NS(=O)(=O)c3cc(Cl)ccc3OC)cc2C1=O [Example 7, 5-Chloro-2-methoxy-N-[4-(2-methoxyethyl)-5-oxo-2,3,4,5-tetrahydropyrido[3,2-f][1,4]oxazepin-7-yl]benzenesulfonamide] | 7.97
14 | COc1ccc(Cl)cc1S(=O)(=O)Nc1cnc2c(c1)C(=O)N[C@@H](CO)CO2 [Example 27, 5-Chloro-N-[(3S)-3-(hydroxymethyl)-5-oxo-2,3,4,5-tetrahydropyrido[3,2-f][1,4]oxazepin-7-yl]-2-methoxybenzenesulfonamide] | 8.82
15 | COc1ccc(OC)c(S(=O)(=O)Nc2cnc3c(c2)C(=O)NC2(CC2)CO3)c1 [Example 43, 2,5-Dimethoxy-N-(5′-oxo-4′,5′-dihydrospiro[cyclopropane-1,3′-pyrido[3,2-f][1,4]oxazepin]-7′-yl)benzenesulfonamide] | 9.00
16 | CCN1CCOc2ncc(NS(=O)(=O)c3cc(Cl)ccc3OC)cc2C1=O [Example 3, 5-Chloro-N-(4-ethyl-5-oxo-2,3,4,5-tetrahydropyrido[3,2-f][1,4]oxazepin-7-yl)-2-methoxybenzenesulfonamide] | 7.89
17 | CCOc1ccc(F)cc1S(=O)(=O)Nc1cnc2c(c1)C(=O)NC1(CC1)CO2 [Example 42, 2-Ethoxy-5-fluoro-N-(5′-oxo-4′,5′-dihydrospiro[cyclopropane-1,3′-pyrido[3,2-f][1,4]oxazepin]-7′-yl)benzenesulfonamide] | 9.22

Other lines, results leading:

Row | pIC50 | Structure (SMILES)
18 | 7.36 | COc1ccc(Cl)cc1S(=O)(=O)Nc1cnc2c(c1)C(=O)N(c1ccccc1)CCO2 [Example 37, 5-Chloro-2-methoxy-N-(5-oxo-4-phenyl-2,3,4,5-tetrahydropyrido[3,2-f][1,4]oxazepin-7-yl)benzenesulfonamide]
19 | 8.57 | O=C1NC2(CC2)COc2ncc(NS(=O)(=O)c3cc(F)ccc3OC(F)(F)F)cc21 [Example 41, 5-Fluoro-N-(5′-oxo-4′,5′-dihydrospiro[cyclopropane-1,3′-pyrido[3,2-f][1,4]oxazepin]-7′-yl)-2-(trifluoromethoxy)benzenesulfonamide]
20 | 7.34 | COc1ccc(F)cc1S(=O)(=O)Nc1cnc2c(c1)C(=O)N(C)[C@H](C)CO2 [Example 21, N-[(3R)-3,4-Dimethyl-5-oxo-2,3,4,5-tetrahydropyrido[3,2-f][1,4]oxazepin-7-yl]-5-fluoro-2-methoxybenzenesulfonamide]
21 | 8.77 | CC[C@H]1COc2ncc(NS(=O)(=O)c3cc(Cl)ccc3OC)cc2C(=O)N1 [Example 25, 5-Chloro-N-[(3S)-3-ethyl-5-oxo-2,3,4,5-tetrahydropyrido[3,2-f][1,4]oxazepin-7-yl]-2-methoxybenzenesulfonamide]
22 | 7.60 | COc1ccc(Cl)cc1S(=O)(=O)Nc1cnc2c(c1)C(=O)NC(C(=O)N1CCOCC1)CO2 (stereo not shown) [Example 46, 5-chloro-2-methoxy-N-[3-(morpholin-4-ylcarbonyl)-5-oxo-2,3,4,5-tetrahydropyrido[3,2-f][1,4]oxazepin-7-yl]benzenesulfonamide]
23 | 8.41 | COc1ccc(Cl)cc1S(=O)(=O)Nc1cnc2c(c1)C(=O)N(C)[C@@H](C)CO2 [Example 18, 5-Chloro-N-[(3S)-3,4-dimethyl-5-oxo-2,3,4,5-tetrahydropyrido[3,2-f][1,4]oxazepin-7-yl]-2-methoxybenzenesulfonamide]
24 | 8.72 | COc1ccc(Cl)cc1S(=O)(=O)Nc1cnc2c(c1)C(=O)N[C@@H](CCO)CO2 [Example 33, 5-Chloro-N-[(3S)-3-(2-hydroxyethyl)-5-oxo-2,3,4,5-tetrahydropyrido[3,2-f][1,4]oxazepin-7-yl]-2-methoxybenzenesulfonamide]
25 | 7.57 | COc1ccc(Cl)cc1S(=O)(=O)Nc1cnc2c(c1)C(=O)N(C)[C@H](C)CO2 [Example 20, 5-Chloro-N-[(3R)-3,4-dimethyl-5-oxo-2,3,4,5-tetrahydropyrido[3,2-f][1,4]oxazepin-7-yl]-2-methoxybenzenesulfonamide]
26 | 7.61 | COc1ccc(Cl)cc1S(=O)(=O)Nc1cnc2c(c1)C(=O)N(c1ccccn1)CCO2 [Example 38, 5-Chloro-2-methoxy-N-[5-oxo-4-(pyridin-2-yl)-2,3,4,5-tetrahydropyrido[3,2-f][1,4]oxazepin-7-yl]benzenesulfonamide]
27 | 8.42 | COc1ccc(OC)c(S(=O)(=O)Nc2cnc3c(c2)C(=O)N[C@@H](CO)CO3)c1 [Example 30, N-[(3S)-3-(Hydroxymethyl)-5-oxo-2,3,4,5-tetrahydropyrido[3,2-f][1,4]oxazepin-7-yl]-2,5-dimethoxybenzenesulfonamide]
28 | 8.17 | COc1ccc(Cl)cc1S(=O)(=O)Nc1cnc2c(c1)C(=O)N[C@@H](CC(=O)N(C)C)CO2 [Example 34, 2-[(3S)-7-{[(5-Chloro-2-methoxyphenyl)sulfonyl]amino}-5-oxo-2,3,4,5-tetrahydropyrido[3,2-f][1,4]oxazepin-3-yl]-N,N-dimethylacetamide]
29 | 8.77 | COc1ccc(Cl)cc1S(=O)(=O)Nc1cnc2c(c1)C(=O)N[C@@H](C)CO2 [Example 22, 5-Chloro-2-methoxy-N-[(3S)-3-methyl-5-oxo-2,3,4,5-tetrahydropyrido[3,2-f][1,4]oxazepin-7-yl]benzenesulfonamide]
30 | 7.84 | COc1ccc(Cl)cc1S(=O)(=O)Nc1cnc2c(c1)C(=O)NC(C(=O)N(C)C)CO2 (stereo not shown) [Example 45, 7-{[(5-Chloro-2-methoxyphenyl)sulfonyl]amino}-N,N-dimethyl-5-oxo-2,3,4,5-tetrahydropyrido[3,2-f][1,4]oxazepine-3-carboxamide]
31 | 8.19 | COc1ccc(F)cc1S(=O)(=O)Nc1cnc2c(c1)C(=O)N(C)[C@@H](C)CO2 [Example 19, N-[(3S)-3,4-Dimethyl-5-oxo-2,3,4,5-tetrahydropyrido[3,2-f][1,4]oxazepin-7-yl]-5-fluoro-2-methoxybenzenesulfonamide]
